In ChEMBL document CHEMBL5724914, “Linking interpersonal differences in gut microbiota composition and drug biotransformation activity” (2024):

Assays:
[1] = The drug is tested on WLS-039 corresponding to human gut metagenome with ENA study accession number: PRJEB37062 and ENA sample accession number: ERS12561746 for biotransformation under anaerobic condition. The drug concentrations were measured over 9 timepoints collected between 0 and 24 hours of incubation by liquid-chromatography-coupled mass spectrometry (LC–MS); conditions: 2 µM
[2] = human gut metagenome, 24 h, 2 µM
[3] = The drug is tested on Z-029 corresponding to rat gut metagenome with ENA study accession number: PRJEB37062 and ENA sample accession number: ERS12561828 for biotransformation under anaerobic condition. The drug concentrations were measured over 9 timepoints collected between 0 and 24 hours of incubation by liquid-chromatography-coupled mass spectrometry (LC–MS); conditions: 2 µM
[4] = The drug is tested on WLS-007 corresponding to human gut metagenome with ENA study accession number: PRJEB37062 and ENA sample accession number: ERS12561742 for biotransformation under anaerobic condition. The drug concentrations were measured over 9 timepoints collected between 0 and 24 hours of incubation by liquid-chromatography-coupled mass spectrometry (LC–MS); conditions: 2 µM
[5] = The drug is tested on Z-024 corresponding to pig gut metagenome with ENA study accession number: PRJEB37062 and ENA sample accession number: ERS12561823 for biotransformation under anaerobic condition. The drug concentrations were measured over 9 timepoints collected between 0 and 24 hours of incubation by liquid-chromatography-coupled mass spectrometry (LC–MS); conditions: 2 µM
[6] = The drug is tested on Z-004 corresponding to metagenome with ENA study accession number: PRJEB37062 and ENA sample accession number: ERS12561804 for biotransformation under anaerobic condition. The drug concentrations were measured over 9 timepoints collected between 0 and 24 hours of incubation by liquid-chromatography-coupled mass spectrometry (LC–MS); conditions: 2 µM
[7] = human gut metagenome, 24 h, 2 µM; remark: listed apart in the source
[8] = The drug is tested on WLS-240 corresponding to human gut metagenome with ENA study accession number: PRJEB37062 and ENA sample accession number: ERS12561773 for biotransformation under anaerobic condition. The drug concentrations were measured over 9 timepoints collected between 0 and 24 hours of incubation by liquid-chromatography-coupled mass spectrometry (LC–MS); conditions: 2 µM
[9] = The drug is tested on Z-011 corresponding to mouse gut metagenome with ENA study accession number: PRJEB37062 and ENA sample accession number: ERS12561811 for biotransformation under anaerobic condition. The drug concentrations were measured over 9 timepoints collected between 0 and 24 hours of incubation by liquid-chromatography-coupled mass spectrometry (LC–MS); conditions: 2 µM
[10] = human gut metagenome, 24 h, 2 µM; remark: listed apart in the source
[11] = The drug is tested on WLS-170 corresponding to human gut metagenome with ENA study accession number: PRJEB37062 and ENA sample accession number: ERS12561762 for biotransformation under anaerobic condition. The drug concentrations were measured over 9 timepoints collected between 0 and 24 hours of incubation by liquid-chromatography-coupled mass spectrometry (LC–MS); conditions: 2 µM
[12] = human gut metagenome, 24 h, 2 µM; remark: listed apart in the source
[13] = human gut metagenome, 24 h, 2 µM; remark: listed apart in the source
[14] = The drug is tested on Z-021 corresponding to metagenome with ENA study accession number: PRJEB37062 and ENA sample accession number: ERS12561820 for biotransformation under anaerobic condition. The drug concentrations were measured over 9 timepoints collected between 0 and 24 hours of incubation by liquid-chromatography-coupled mass spectrometry (LC–MS); conditions: 2 µM
[15] = human gut metagenome, 24 h, 2 µM; remark: listed apart in the source
[16] = human gut metagenome, 24 h, 2 µM; remark: listed apart in the source
[17] = The drug is tested on Z-020 corresponding to rabbit gut metagenome with ENA study accession number: PRJEB37062 and ENA sample accession number: ERS12561819 for biotransformation under anaerobic condition. The drug concentrations were measured over 9 timepoints collected between 0 and 24 hours of incubation by liquid-chromatography-coupled mass spectrometry (LC–MS); conditions: 2 µM
[18] = The drug is tested on Z-001 corresponding to mouse gut metagenome with ENA study accession number: PRJEB37062 and ENA sample accession number: ERS12561801 for biotransformation under anaerobic condition. The drug concentrations were measured over 9 timepoints collected between 0 and 24 hours of incubation by liquid-chromatography-coupled mass spectrometry (LC–MS); conditions: 2 µM
[19] = The drug is tested on Z-006 corresponding to mouse gut metagenome with ENA study accession number: PRJEB37062 and ENA sample accession number: ERS12561806 for biotransformation under anaerobic condition. The drug concentrations were measured over 9 timepoints collected between 0 and 24 hours of incubation by liquid-chromatography-coupled mass spectrometry (LC–MS); conditions: 2 µM
[20] = The drug is tested on WLS-069 corresponding to human gut metagenome with ENA study accession number: PRJEB37062 and ENA sample accession number: ERS12561748 for biotransformation under anaerobic condition. The drug concentrations were measured over 9 timepoints collected between 0 and 24 hours of incubation by liquid-chromatography-coupled mass spectrometry (LC–MS); conditions: 2 µM
Also: call rule not given here.

| Compound | Bacterial Biotransformation [1] | Bacterial Biotransformation [2] | Bacterial Biotransformation [3] | Bacterial Biotransformation [4] | Bacterial Biotransformation [5] | Bacterial Biotransformation [6] | Bacterial Biotransformation [7] | Bacterial Biotransformation [8] | Bacterial Biotransformation [9] | Bacterial Biotransformation [10] | Bacterial Biotransformation [11] | Bacterial Biotransformation [12] | Bacterial Biotransformation [13] | Bacterial Biotransformation [14] | Bacterial Biotransformation [15] | Bacterial Biotransformation [16] | Bacterial Biotransformation [17] | Bacterial Biotransformation [18] | Bacterial Biotransformation [19] | Bacterial Biotransformation [20] |
| --- | --- | --- | --- | --- | --- | --- | --- | --- | --- | --- | --- | --- | --- | --- | --- | --- | --- | --- | --- | --- |
| O=C(O)c1cc(/N=N/c2ccc(S(=O)(=O)Nc3ccccn3)cc2)ccc1O [SULFASALAZINE] | Compound metabolized | Compound metabolized | Compound metabolized | Compound metabolized | Compound metabolized | Compound metabolized | Compound metabolized | Compound metabolized | Compound metabolized | Compound metabolized | Compound metabolized | Compound metabolized | Compound metabolized | Compound metabolized | Compound metabolized | Compound metabolized | Compound metabolized | Compound metabolized | Compound metabolized | Compound metabolized |
| C=CC[C@@H]1/C=C(\C)C[C@H](C)C[C@H](OC)[C@H]2O[C@@](O)(C(=O)C(=O)N3CCCC[C@H]3C(=O)O[C@H](/C(C)=C/[C@@H]3CC[C@@H](O)[C@H](OC)C3)[C@H](C)[C@@H](O)CC1=O)[C@H](C)C[C@@H]2OC.O [TACROLIMUS] | Compound metabolized | Compound metabolized | Compound NOT metabolized | Compound NOT metabolized | Compound NOT metabolized | Compound NOT metabolized | Compound metabolized | Compound metabolized | Compound NOT metabolized | Compound metabolized | Compound metabolized | Compound metabolized | Compound metabolized | Compound NOT metabolized | Compound metabolized | Compound metabolized | Compound NOT metabolized | Compound NOT metabolized | Compound NOT metabolized | Compound metabolized |
| CCS(=O)(=O)CCn1c([N+](=O)[O-])cnc1C [TINIDAZOLE] | Compound metabolized | Compound metabolized | Compound metabolized | Compound metabolized | Compound metabolized | Compound metabolized | Compound metabolized | Compound metabolized | Compound metabolized | Compound metabolized | Compound metabolized | Compound metabolized | Compound NOT metabolized | Compound metabolized | Compound metabolized | Compound metabolized | Compound metabolized | Compound metabolized | Compound metabolized | Compound metabolized |
| COc1ccc(CN2CCNCC2)c(OC)c1OC.Cl.Cl [TRIMETAZIDINE DIHYDROCHLORIDE] | Compound NOT metabolized | Compound NOT metabolized | Compound NOT metabolized | Compound NOT metabolized | Compound NOT metabolized | Compound NOT metabolized | Compound NOT metabolized | Compound NOT metabolized | Compound NOT metabolized | Compound NOT metabolized | Compound NOT metabolized | Compound NOT metabolized | Compound NOT metabolized | Compound NOT metabolized | Compound NOT metabolized | Compound NOT metabolized | Compound NOT metabolized | Compound NOT metabolized | Compound NOT metabolized | Compound NOT metabolized |
| CN1[C@@H]2CC[C@H]1C[C@@H](OC(=O)c1c[nH]c3ccccc13)C2 [TROPISETRON] | Compound NOT metabolized | Compound NOT metabolized | Compound NOT metabolized | Compound NOT metabolized | Compound NOT metabolized | Compound NOT metabolized | Compound NOT metabolized | Compound NOT metabolized | Compound NOT metabolized | Compound NOT metabolized | Compound NOT metabolized | Compound NOT metabolized | Compound NOT metabolized | Compound NOT metabolized | Compound NOT metabolized | Compound NOT metabolized | Compound NOT metabolized | Compound NOT metabolized | Compound NOT metabolized | Compound NOT metabolized |
